Legend:
Type in all cases: in vivo, rat
GFAP mRNA = assay: Real-time PCR of GFAP mRNA at L5 lumbar spinal cord; conditions: compared to saline-treated controls; morphine 10 mg/kg twice daily 5 days, or propentofylline 10 micrograms intrathecally 5 days in saline-treated rats
Procedure: (§1) Total RNA was treated with DNase I (Ambion, Austin, Tex.) to remove DNA contamination before cDNA synthesis. The reverse transcription (RT) was carried out in a 100 μl total reaction volume containing RT buffer, dNTPs, multiscribe reverse transcriptase, RNase-free water and 10 μg of DNase-treated total RNA. The RT reaction was carried out at 25° C. for 10 minutes, 37° C. for 120 minutes, and 95° C. for 5 minutes. Real-time PCR analysis was performed using gene-specific primers and probes that were designed and blasted against GENBANK to confirm their species and gene specificity. […] The real-time PCR reactions were carried out using Platinum Taq DNA polymerase, 20 mM Tris HCl (pH 8.4), 50 mM KCl, 3 mM MgCl2, 200 μM dGTP, dCTP, and dATP, 400 μM of dUTP and 1 U uracyl DNA glycosylase (UDG), 900 nM forward and reverse primers, 300 nM TaqMan probe, and 10-fold dilution of cDNA (50 ng) from the RT step. Primers and probes for glyceraldehyde-3-phosphate (GADPH), GFAP and Mac-1 were obtained form Applied Biosystems (LaJolla, Calif.). The relative standard curves generated by plotting the threshold value versus the log of the amount of total cDNA added to the reaction (1-10000 pg) were used to compare the relative amount of target genes from control and chronic morphine-treated animals.

IL-1β protein = assay: Cytokine protein estimation by ELISA at L5 spinal cord; conditions: ELISA, propentofylline 10 μg intrathecally 5 days, morphine 10 mg/kg twice daily 5 days
Procedure: (§2) Quantitative determination of IL-1β, TNF-α and IL-6 protein was performed on the L5 spinal cord of the rats. […] Briefly, weighed sections of L5 spinal cord were homogenized in a homogenization buffer consisting of a protease inhibitor using the a Power Gen 125 tissue tearer (Fisher Scientific, Suwanee, Ga.). Samples were spun at 20,000×g for 30 minutes at 4° C. Supernatant was aliquoted and stored at −80° C. for future protein quantification. IL-1β and TNF-α (R&D Systems, Minneapolis, Minn.) and IL-6 (Biosource, Camarillo, Calif.) protein concentrations were determined utilizing the quantitative sandwich enzyme immunoassay.

IL-6 protein = assay: as above; conditions: ELISA, propentofylline 10 μg intrathecally 5 days, morphine 10 mg/kg twice daily 5 days
Procedure: as §2

TNF-α protein = assay: as above; conditions: ELISA, propentofylline 10 μg intrathecally 5 days, morphine 10 mg/kg twice daily 5 days
Procedure: as §2

IL-1β mRNA = assay: RNase protection assay, cytokine mRNA at L5 lumbar spinal cord; conditions: ratio of expression compared with saline-treated animals (=1), propentofylline 10 μg intrathecally 5 days, morphine 10 mg/kg twice daily 5 days
Procedure: (§6) After behavioral testing for reactions to the combined treatment, rats were sacrificed and decapitated. An 18-gauge needle was inserted into the caudal end of the vertebral column and the spinal cord was expelled with ice-cold phosphate-buffered saline. The spinal cord was frozen immediately on dry ice and stored at −80° C. until homogenization. The L5 lumbar spinal cord was isolated from the intact frozen cord at the time of mRNA and protein quantification. Total RNA was isolated from the L5 spinal cord by the TRIzol extraction method (Invitrogen Corporation, Carlsbad, Calif).
(§7) Assessment of the temporal cytokine mRNA expression in the L5 lumber spinal cord was performed using a Ribonuclease Protection Assay technique. A Multiprobe RPAse kit was used (Pharmingen, San Diego, Calif.). Total RNA (15 μg) was hybridized to ^32P-labeled antisense RNA probes transcribed using the rat cytokine-1 (rCK-1) multiprobe template set resulting in double-stranded target RNA. After Rnase digestion, protected RNA and probe were resolved on a denaturing polyacrylamide gel and visualized by overnight autoradiography. Quantitative image analysis was employed to compare mRNA levels based on band intensities for each cytokine. The intensity of each band was measured using image analysis software and assigned an arbitrary unit based on the measured intensity levels. The value for the normalized quantity for each band was obtained by dividing by the L32 house-keeping gene control. Individual mRNA concentration was calculated as the ratio of the expression compared with saline-treated animals in which normal values were weighted as 1.

Male Sprague-Dawley rats [1] = assay: Morphine tolerance model, acute intrathecal morphine evaluated by thermal and mechanical test paradigms; conditions: chronic subcutaneous morphine 10 mg/kg twice daily for 5 days; noxious thermal and mechanical testing paradigms
Procedure: (§3) Male Sprague-Dawley rats (175-200 grams, Harlan, Indianapolis, Ind.) were divided into two groups (n=8 per group). Rats received subcutaneous injections of either saline or morphine (10 mg/kg; Sigma, St. Louis, Mo.) twice daily at 0800 to 0900 and 1600-1700 hour for 5 days in order to induce opioid tolerance. Chronic morphine withdrawal-induced hyperalgesia and allodynia were assessed in the animals 16 hours after the last injection of morphine. Following the recording of morphine withdrawal-induced hyperalgesia and allodynia, animals were treated with morphine (5 microgram) acutely via lumbar intrathecal injection to study the expression of morphine tolerance. Acute analgesic activity or intrathecal morphine in morphine-tolerant and chronic aline-treated rats were evaluated by mechanical (Analgesy-Meter) and thermal (tail-flick) test paradigms. Behaviors recorded prior to the acute administration of intrathecal morphine served as the basal latency measures.
With an understanding of the effects of morphine alone, separate groups of rats (n=8) received with saline or morphine (10 mg/kg subcutaneously, twice daily for 5 days) and also received once daily injections (at 1100 to 1200 hour) of propentofylline (1 and 10 micrograms) or saline via direct lumbar puncture during the induction of morphine tolerance. Again, chronic morphine withdrawal-induced hyperalgesia and allodynia were assessed in the animals 16 hours after the last subcutaneous morphine injection. […] As before, the acute analgesic activity of intrathecal morphine in morphine-tolerant and saline-injected rats was evaluated by mechanical (Analgesy-Meter) and thermal (tail-flick) test paradigms. Behavior recorded prior to the acute administration of intrathecal morphine served as the basal latency.
(§4) In blinded testing, rats were subjected to sequential series of 10 tactile stimulations to the dorsal surface of the ipsilateral hindpaw using […] von Frey filaments (Stoelting Co., WoodDale, Ill.) sequentially. The number of foot withdrawals to this normally non-noxious stimulus determined mechanical allodynia. Mechanical sensitivity was assessed by recording the total number of responses elicited during three successive trials separated by at least 10 minutes. The pressure required to elicit paw withdrawal, the paw pressure threshold was determined.
Thermal nociceptive thresholds were evaluated by the hot water tail-flick test that has been described previously (Bian, D. et al. 1999. Brain Res. 831:55-63). […] Again, the total number of responses elicited during three successive trials separated by at least 10 minutes was recorded and then expressed as the % maximal possible effect. […]

Male Sprague-Dawley rats [2] = assay: Hot water tail-flick test, morphine withdrawal-induced thermal hyperalgesia
Procedure: as §3
(§5) With an understanding of the effects of morphine alone, separate groups of rats (n=8) received with saline or morphine (10 mg/kg subcutaneously, twice daily for 5 days) and also received once daily injections (at 1100 to 1200 hour) of propentofylline (1 and 10 micrograms) or saline via direct lumbar puncture during the induction of morphine tolerance. Again, chronic morphine withdrawal-induced hyperalgesia and allodynia were assessed in the animals 16 hours after the last subcutaneous morphine injection. Following the recording of morphine withdrawal-induced hyperalgesia and allodynia, animals were treated with morphine (5 micrograms) acutely via lumbar puncture to study the expression of morphine tolerance. As before, the acute analgesic activity of intrathecal morphine in morphine-tolerant and saline-injected rats was evaluated by mechanical (Analgesy-Meter) and thermal (tail-flick) test paradigms. Behavior recorded prior to the acute administration of intrathecal morphine served as the basal latency.
Thermal nociceptive thresholds were evaluated by the hot water tail-flick test that has been described previously (Bian, D. et al. 1999. Brain Res. 831:55-63). The test consisted of immersing the tail of the rats in water maintained at 49° C. and then recording the latency to a rapid flick. A 15 second cut-off time was used. Again, the total number of responses elicited during three successive trials separated by at least 10 minutes was recorded and then expressed as the % maximal possible effect. The tester was again blinded to the test groups.

Male Sprague-Dawley rats [3] = assay: Paw pressure test (Analgesy-Meter), morphine withdrawal-induced mechanical hyperalgesia
Procedure: as §3, §5, §4

IL-6 mRNA = assay: RNase protection assay, cytokine mRNA at L5 lumbar spinal cord; conditions: ratio of expression compared with saline-treated animals (=1), propentofylline 10 μg intrathecally 5 days, morphine 10 mg/kg twice daily 5 days
Procedure: as §6, §7

Mac-1 mRNA = assay: Real-time PCR of Mac-1 mRNA at L5 lumbar spinal cord; conditions: compared to saline-treated controls; morphine 10 mg/kg twice daily 5 days, or propentofylline 10 micrograms intrathecally 5 days in saline-treated rats
Procedure: as §1

Male Sprague-Dawley rats [4] = assay: Mechanical allodynia (von Frey filaments), morphine withdrawal
Procedure: as §3, §5
Mechanical sensitivity was measured as the frequency of foot withdrawals elicited by a defined mechanical stimulus. Each rat, under unrestrained conditions, was placed beneath an inverted, ventilated Plexiglas cage upon an elevated aluminum screen surface with 1 cm mesh openings. Animals had been previously acclimated to the environment and the experimenter.
as §4

[5] = 16 hours after last injection, morphine 10 mg/kg s.c. twice daily 5 days and/or propentofylline 10 micrograms intrathecally once daily 5 days
[6] = 16 hours after last morphine injection (10 mg/kg s.c. twice daily 5 days), propentofylline 1 and 10 micrograms intrathecally for 5 days during induction of tolerance

SMILES: CN1CC[C@]23c4c5ccc(O)c4O[C@H]2[C@@H](O)C=C[C@H]3[C@H]1C5 [morphine]
- GFAP mRNA levels at the L5 lumbar spinal cord (GFAP mRNA): significant increases
- IL-1β protein level at the L5 lumbar spinal cord (IL-1β protein): significantly increased
- IL-1β protein level at the L5 lumbar spinal cord (IL-1β protein; listed as Morphine): 73.5 ± 9.2
- IL-6 protein level at the L5 lumbar spinal cord (IL-6 protein): significantly increased
- IL-6 protein level at the L5 lumbar spinal cord (IL-6 protein; listed as Morphine): 359 ± 62.4
- TNF-α protein level at the L5 lumbar spinal cord (TNF-α protein): not significantly increased
- TNF-α protein level at the L5 lumbar spinal cord (TNF-α protein; listed as Morphine): 36.6 ± 5.6
- IL-1β mRNA at the L5 lumbar spinal cord (IL-1β mRNA): significantly increased
- IL-1β mRNA at the L5 lumbar spinal cord (IL-1β mRNA; listed as Morphine): 1.92 ± 0.14
- anti-nociceptive tolerance to acute intrathecal morphine (5 micrograms) (Male Sprague-Dawley rats [1]): demonstrated anti-nociceptive tolerance
- Tail-flick latency (Male Sprague-Dawley rats [2]; [5]): 3.7 ± 0.2 s
- morphine withdrawal-induced noxious thermal hyperalgesia (Male Sprague-Dawley rats [2]; [6]): led to withdrawal-induced thermal and mechanical hyperalgesia
- Paw pressure latency (Male Sprague-Dawley rats [3]; [5]): 69.8 ± 4.8 grams
- morphine withdrawal-induced mechanical hyperalgesia (Male Sprague-Dawley rats [3]; [6]): led to withdrawal-induced thermal and mechanical hyperalgesia
- IL-6 mRNA at the L5 lumbar spinal cord (IL-6 mRNA): significantly increased
- IL-6 mRNA at the L5 lumbar spinal cord (IL-6 mRNA; listed as Morphine): 1.85 ± 0.16
- Mac-1 mRNA levels at the L5 lumbar spinal cord (Mac-1 mRNA): significant increases
- morphine withdrawal-induced mechanical allodynia (Male Sprague-Dawley rats [4]; [6]): led to withdrawal-induced thermal and mechanical hyperalgesia and mechanical allodynia
- Mechanical allodynia (2 grams) (Male Sprague-Dawley rats [4]; number of foot withdrawals, 2 grams von Frey filament, morphine 10 mg/kg s.c. twice daily 5 days and/or propentofylline 10 micrograms intrathecally): 3.9 ± 0.5
- Mechanical allodynia (12 grams) (Male Sprague-Dawley rats [4]; number of foot withdrawals, 12 grams von Frey filament, morphine 10 mg/kg s.c. twice daily 5 days and/or propentofylline 10 micrograms intrathecally): 6.9 ± 0.7

From US7763626B2, “Compositions and method for enhancing the therapeutic activity of opiods in treatment of pain” (Trustees of Dartmouth College, priority 2004, dated 2010)
